This passage reports % of control and % of inhibition results from ChEMBL document CHEMBL5465560, “Selectivity Literature for EUbOPEN Chemogenomic Library” (2024).

The structures appear in SMILES notation.

The subject of experiment [1] is Epidermal growth factor receptor (Homo sapiens), P00533 [UNDEFINED MUTATION]. Kind of experiment: Selectivity interaction (KinomeScan (DiscoverX)) EUB0000666a EGFR. The conditions noted are these: at 10 µM.
Experiment [2] deals with T1, Serine/threonine-protein kinase Nek9 (Homo sapiens) (UniProt Q8TD19).
T1 sequence (whole entry): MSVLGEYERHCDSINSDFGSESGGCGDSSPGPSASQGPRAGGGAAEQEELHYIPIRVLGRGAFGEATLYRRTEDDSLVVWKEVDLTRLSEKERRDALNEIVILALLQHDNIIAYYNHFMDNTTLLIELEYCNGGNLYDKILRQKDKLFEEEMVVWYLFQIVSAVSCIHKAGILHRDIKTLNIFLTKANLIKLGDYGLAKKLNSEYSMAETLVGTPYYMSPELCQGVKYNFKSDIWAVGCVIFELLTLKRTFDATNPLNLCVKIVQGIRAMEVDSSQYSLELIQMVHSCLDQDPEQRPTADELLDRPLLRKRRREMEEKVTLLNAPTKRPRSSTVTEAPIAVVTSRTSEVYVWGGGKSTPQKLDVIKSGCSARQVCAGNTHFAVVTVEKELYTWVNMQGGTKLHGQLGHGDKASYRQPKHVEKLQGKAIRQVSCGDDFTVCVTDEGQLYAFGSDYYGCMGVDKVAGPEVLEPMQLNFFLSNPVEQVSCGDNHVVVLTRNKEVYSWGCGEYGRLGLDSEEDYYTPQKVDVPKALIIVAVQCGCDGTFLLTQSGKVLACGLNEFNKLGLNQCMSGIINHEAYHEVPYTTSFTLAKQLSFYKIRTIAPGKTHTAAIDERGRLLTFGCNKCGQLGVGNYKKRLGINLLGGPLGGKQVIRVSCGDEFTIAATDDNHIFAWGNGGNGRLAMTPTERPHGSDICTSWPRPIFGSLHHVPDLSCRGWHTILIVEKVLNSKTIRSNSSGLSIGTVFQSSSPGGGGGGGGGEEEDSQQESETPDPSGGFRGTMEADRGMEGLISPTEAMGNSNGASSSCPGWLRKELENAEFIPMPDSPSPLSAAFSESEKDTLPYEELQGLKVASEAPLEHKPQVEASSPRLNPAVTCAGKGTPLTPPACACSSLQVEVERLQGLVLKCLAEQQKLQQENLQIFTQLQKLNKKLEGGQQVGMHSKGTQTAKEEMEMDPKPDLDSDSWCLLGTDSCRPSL
Kind of experiment: Selectivity interaction (ActivX KiNativ screen (kinase selectivity in THP-1 cell lysates)) EUB0000639a NEK9. The format is subcellular. The conditions noted are these: lysate, at 1 µM.

In experiment [3] the target is T2, Interleukin-1 receptor-associated kinase 4 (Homo sapiens) (UniProt Q9NWZ3).
T2 sequence (whole entry): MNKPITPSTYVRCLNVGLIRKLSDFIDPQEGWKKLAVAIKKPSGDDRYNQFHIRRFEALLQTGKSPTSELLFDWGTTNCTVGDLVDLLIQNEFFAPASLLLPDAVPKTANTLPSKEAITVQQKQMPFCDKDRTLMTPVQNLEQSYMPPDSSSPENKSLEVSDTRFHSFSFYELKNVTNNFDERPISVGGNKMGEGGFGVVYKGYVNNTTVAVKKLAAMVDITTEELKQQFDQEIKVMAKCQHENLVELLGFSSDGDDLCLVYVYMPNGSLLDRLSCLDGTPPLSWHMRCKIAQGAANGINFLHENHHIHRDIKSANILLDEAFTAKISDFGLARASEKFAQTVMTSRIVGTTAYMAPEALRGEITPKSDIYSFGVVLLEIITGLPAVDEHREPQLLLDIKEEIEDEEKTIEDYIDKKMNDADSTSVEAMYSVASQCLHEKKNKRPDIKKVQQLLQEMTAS
Kind of experiment: Selectivity interaction (ProQinase) EUB0000171b IRAK4.

The target of experiment [4] is Calcium/calmodulin-dependent protein kinase type II subunit delta (Homo sapiens) (UniProt Q13557). Nature of the experiment: Selectivity interaction (Ambit KINOMEscan and KiNATiv profiling in Jurkat cells) EUB0000090b CAMK2D. The conditions noted are these: at 1 µM. The format is cell-based.
Experiment [5] has as its target Homeodomain-interacting protein kinase 3 (Homo sapiens, UniProt Q9H422). Kind of experiment: Selectivity interaction (Upstate Kinase Profiler service (Millipore)) EUB0000056c HIPK3. The conditions noted are these: at 1 µM.
Another experiment concerns the target Histamine H1 receptor (Homo sapiens, UniProt P35367). Kind of experiment: Selectivity interaction (GPCR panel (PDSP screen)) EUB0001079a HRH1. The conditions noted are these: at 10 µM.
The target of experiment [6] is T3, Protein kinase C iota type (Homo sapiens) (UniProt P41743).
T3 sequence (whole entry): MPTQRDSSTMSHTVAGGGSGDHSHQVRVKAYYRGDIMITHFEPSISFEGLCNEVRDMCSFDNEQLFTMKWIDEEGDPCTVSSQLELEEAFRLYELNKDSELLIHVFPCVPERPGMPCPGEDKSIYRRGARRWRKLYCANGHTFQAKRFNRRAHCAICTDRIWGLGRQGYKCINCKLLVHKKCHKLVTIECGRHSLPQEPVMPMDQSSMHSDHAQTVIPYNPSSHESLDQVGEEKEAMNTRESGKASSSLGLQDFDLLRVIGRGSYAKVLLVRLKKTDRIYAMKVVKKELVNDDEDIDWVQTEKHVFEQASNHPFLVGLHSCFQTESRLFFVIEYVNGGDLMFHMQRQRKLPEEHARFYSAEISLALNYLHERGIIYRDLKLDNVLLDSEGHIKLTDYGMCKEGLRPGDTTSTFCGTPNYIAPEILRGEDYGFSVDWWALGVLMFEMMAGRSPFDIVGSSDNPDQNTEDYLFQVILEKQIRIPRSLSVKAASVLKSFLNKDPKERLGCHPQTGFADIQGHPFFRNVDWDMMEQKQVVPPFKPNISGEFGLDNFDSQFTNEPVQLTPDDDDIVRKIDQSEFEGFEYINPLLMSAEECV
Kind of experiment: Selectivity interaction (Millipore kinase profiler) EUB0000124b PRKCI. The conditions noted are these: at 10 µM.

Epidermal growth factor receptor (Homo sapiens), P00533 [UNDEFINED MUTATION], sequence (P00533 whole entry, looked up, change not shown): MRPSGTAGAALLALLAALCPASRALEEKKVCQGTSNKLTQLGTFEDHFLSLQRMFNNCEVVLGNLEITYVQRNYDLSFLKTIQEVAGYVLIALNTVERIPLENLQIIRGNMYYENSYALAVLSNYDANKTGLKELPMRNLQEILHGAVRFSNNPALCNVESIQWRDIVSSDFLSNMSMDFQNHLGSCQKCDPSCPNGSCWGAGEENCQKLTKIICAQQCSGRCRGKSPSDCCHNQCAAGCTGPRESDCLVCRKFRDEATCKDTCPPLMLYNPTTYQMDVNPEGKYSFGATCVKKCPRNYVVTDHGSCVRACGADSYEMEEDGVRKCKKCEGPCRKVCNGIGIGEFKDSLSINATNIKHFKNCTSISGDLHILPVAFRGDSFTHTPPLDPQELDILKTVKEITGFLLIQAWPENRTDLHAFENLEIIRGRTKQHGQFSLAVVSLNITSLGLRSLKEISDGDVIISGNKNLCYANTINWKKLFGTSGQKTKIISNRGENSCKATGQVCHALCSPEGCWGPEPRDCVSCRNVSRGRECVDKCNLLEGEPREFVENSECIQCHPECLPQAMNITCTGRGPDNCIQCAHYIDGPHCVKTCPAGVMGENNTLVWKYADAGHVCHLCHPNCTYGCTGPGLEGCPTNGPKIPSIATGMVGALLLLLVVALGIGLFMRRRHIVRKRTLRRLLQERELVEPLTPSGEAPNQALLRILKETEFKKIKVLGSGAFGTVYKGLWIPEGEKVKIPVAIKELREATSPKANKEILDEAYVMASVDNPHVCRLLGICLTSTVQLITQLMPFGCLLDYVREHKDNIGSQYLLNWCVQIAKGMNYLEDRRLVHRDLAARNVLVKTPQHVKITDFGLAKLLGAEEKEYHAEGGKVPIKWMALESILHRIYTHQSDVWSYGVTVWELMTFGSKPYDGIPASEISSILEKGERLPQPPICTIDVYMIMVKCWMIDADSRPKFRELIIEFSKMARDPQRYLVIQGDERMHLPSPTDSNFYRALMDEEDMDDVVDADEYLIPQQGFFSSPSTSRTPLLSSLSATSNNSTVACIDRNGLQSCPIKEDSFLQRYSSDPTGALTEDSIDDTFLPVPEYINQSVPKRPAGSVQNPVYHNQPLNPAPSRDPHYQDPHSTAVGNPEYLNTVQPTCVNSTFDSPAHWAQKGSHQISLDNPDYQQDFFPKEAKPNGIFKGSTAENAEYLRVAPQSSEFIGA
Homeodomain-interacting protein kinase 3, sequence (Q9H422 whole entry, looked up): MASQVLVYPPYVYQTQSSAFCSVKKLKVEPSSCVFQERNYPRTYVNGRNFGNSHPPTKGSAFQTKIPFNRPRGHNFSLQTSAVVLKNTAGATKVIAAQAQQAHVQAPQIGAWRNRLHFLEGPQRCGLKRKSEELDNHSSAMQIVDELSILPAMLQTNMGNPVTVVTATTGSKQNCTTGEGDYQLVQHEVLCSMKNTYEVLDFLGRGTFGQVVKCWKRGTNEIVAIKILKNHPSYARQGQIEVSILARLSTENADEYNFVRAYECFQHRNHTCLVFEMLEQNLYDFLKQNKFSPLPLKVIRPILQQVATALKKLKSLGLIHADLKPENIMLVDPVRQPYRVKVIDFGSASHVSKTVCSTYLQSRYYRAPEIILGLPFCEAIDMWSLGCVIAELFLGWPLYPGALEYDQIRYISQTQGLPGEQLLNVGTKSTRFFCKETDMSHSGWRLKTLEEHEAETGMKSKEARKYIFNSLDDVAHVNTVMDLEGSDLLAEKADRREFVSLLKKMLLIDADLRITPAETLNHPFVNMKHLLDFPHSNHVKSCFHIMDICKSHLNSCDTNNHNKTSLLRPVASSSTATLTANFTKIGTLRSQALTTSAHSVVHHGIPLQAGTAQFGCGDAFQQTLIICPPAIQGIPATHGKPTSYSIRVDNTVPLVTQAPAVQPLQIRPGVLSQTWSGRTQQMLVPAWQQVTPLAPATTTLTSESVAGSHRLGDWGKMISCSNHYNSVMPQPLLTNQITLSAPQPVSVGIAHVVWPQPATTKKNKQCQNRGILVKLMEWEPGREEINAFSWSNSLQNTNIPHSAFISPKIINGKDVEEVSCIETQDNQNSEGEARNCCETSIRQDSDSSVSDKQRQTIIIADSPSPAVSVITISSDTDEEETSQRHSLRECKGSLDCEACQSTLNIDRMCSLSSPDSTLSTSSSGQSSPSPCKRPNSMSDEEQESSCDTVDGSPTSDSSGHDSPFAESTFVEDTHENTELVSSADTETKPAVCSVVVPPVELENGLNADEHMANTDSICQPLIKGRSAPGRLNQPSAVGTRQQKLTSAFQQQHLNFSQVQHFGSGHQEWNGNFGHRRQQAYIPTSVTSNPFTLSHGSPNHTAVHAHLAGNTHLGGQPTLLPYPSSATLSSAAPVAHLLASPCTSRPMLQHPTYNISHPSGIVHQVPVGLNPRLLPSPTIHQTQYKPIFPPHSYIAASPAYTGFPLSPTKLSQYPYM
Histamine H1 receptor, sequence (P35367 whole entry): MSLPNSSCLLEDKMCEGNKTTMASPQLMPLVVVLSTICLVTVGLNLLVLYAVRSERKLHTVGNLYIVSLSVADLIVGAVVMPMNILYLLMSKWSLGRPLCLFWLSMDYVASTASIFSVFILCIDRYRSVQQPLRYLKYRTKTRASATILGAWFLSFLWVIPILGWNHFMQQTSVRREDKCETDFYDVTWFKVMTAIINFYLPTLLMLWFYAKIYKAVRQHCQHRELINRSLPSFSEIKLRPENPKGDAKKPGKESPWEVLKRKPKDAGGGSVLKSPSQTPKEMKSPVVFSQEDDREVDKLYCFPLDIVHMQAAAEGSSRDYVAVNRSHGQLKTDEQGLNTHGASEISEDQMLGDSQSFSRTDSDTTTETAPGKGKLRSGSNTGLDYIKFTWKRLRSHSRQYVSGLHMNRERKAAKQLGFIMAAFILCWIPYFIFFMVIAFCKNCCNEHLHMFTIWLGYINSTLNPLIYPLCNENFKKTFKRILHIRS
Calcium/calmodulin-dependent protein kinase type II subunit delta (Homo sapiens), sequence (Q13557 whole entry): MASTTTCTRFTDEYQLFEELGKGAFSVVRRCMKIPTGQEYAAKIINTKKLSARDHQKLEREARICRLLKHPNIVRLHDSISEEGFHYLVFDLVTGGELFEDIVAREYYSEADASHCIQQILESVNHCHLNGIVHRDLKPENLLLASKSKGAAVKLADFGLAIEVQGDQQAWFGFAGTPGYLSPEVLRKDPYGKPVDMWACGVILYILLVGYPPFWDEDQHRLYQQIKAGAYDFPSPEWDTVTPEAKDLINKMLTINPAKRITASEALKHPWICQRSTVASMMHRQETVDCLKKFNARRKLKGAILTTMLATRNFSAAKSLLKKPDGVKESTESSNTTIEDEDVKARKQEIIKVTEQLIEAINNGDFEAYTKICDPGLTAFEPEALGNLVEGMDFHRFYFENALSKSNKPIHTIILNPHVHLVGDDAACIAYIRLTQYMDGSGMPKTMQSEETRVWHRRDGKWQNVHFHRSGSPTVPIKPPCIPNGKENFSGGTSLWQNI

In experiment [1], `O=C(NOC[C@H](O)CO)c1ccc(F)c(F)c1Nc1ccc(I)cc1F` returned a % of control of 59%.
With `CC[C@@H]1[C@H](F)C(=O)N[C@@H]1COc1nccc2cc(C(N)=O)c(OC)cc12` [ZIMLOVISERTIB], in experiment [2], the % of inhibition was -1.1%.
With `C=CC(=O)Nc1cccc(C(=O)Nc2ccc(Nc3cc(-c4[nH]c(SC)nc4C)ccn3)cc2)c1`, the figures for the % of control in experiment [3] (at 1 µM) and in experiment [3] (at 5 µM) were 85% and 56%, respectively.
On to `CN(C)C/C=C/C(=O)Nc1ccc(C(=O)N2CCCC(Nc3ncc(Cl)c(-c4c[nH]c5ccccc45)n3)C2)cc1` (stereo not drawn), for which, in experiment [4], the % of control worked out at 88%.
On to `Cc1ccc(-c2ccc3c(ccc4sc5c(c43)NC[C@@H](C)NC5=O)n2)cn1`, for which, in experiment [5], the % of inhibition is -11%.
For the molecule `Nc1cnc(N2CCc3cc(S(=O)(=O)Nc4c(F)cc(Cl)cc4F)cc(N4CCCC4=O)c32)nc1` [TP-020n], the % of inhibition on Histamine H1 receptor is -2.69%.
Turning to `CC(=O)Nc1cccc(-n2c(=O)n(C3CC3)c(=O)c3c(Nc4ccc(I)cc4F)n(C)c(=O)c(C)c32)c1`, the % of control in experiment [6] turned out to be 83%.
